ChEMBL document CHEMBL1781873, “Synthesis and antibacterial property of pyrrolopyrano quinolinones and pyrroloquinolines” (2011)
≈ marks a conversion by molar mass, not a printed value. Calls of active or inactive are those of the source. No cut-off for these calls is given here.

Legend:
[1] = test system: Escherichia coli; assay: Antibacterial activity against Escherichia coli at 25 ug after 24 hrs by disc diffusion assay; format: functional; settings: read-out: IZ
[2] = test system: Pseudomonas aeruginosa; assay: Antibacterial activity against Pseudomonas aeruginosa after 18 to 20 hrs by broth micro dilution assay; format: functional
[3] = test system: Pseudomonas aeruginosa; assay: Antibacterial activity against Pseudomonas aeruginosa at 10 ug after 24 hrs by disc diffusion assay; format: functional; settings: read-out: IZ
[4] = test system: Staphylococcus aureus; assay: Antibacterial activity against Staphylococcus aureus at 20 ug after 24 hrs by disc diffusion assay; format: functional; settings: read-out: IZ
[5] = test system: Klebsiella pneumoniae; assay: Antibacterial activity against Klebsiella pneumoniae at 5 ug after 24 hrs by disc diffusion assay; format: functional; settings: read-out: IZ
[6] = test system: Bacillus subtilis; assay: Antibacterial activity against Bacillus subtilis at 20 ug after 24 hrs by disc diffusion assay; format: functional; settings: read-out: IZ
[7] = test system: Staphylococcus aureus; assay: Antibacterial activity against Staphylococcus aureus at 15 ug after 24 hrs by disc diffusion assay; format: functional; settings: read-out: IZ
[8] = test system: Klebsiella pneumoniae; assay: Antibacterial activity against Klebsiella pneumoniae at 10 ug after 24 hrs by disc diffusion assay; format: functional; settings: read-out: IZ
[9] = test system: Salmonella typhi; assay: Antibacterial activity against Salmonella typhi after 18 to 20 hrs by broth micro dilution assay; format: functional, Salmonella enterica subsp. enterica serovar Typhi; settings: Salmonella enterica
[10] = test system: Staphylococcus aureus; assay: Antibacterial activity against Staphylococcus aureus at 10 ug after 24 hrs by disc diffusion assay; format: functional; settings: read-out: IZ
[11] = test system: Pseudomonas aeruginosa; assay: Antibacterial activity against Pseudomonas aeruginosa at 15 ug after 24 hrs by disc diffusion assay; format: functional; settings: read-out: IZ
[12] = test system: Pseudomonas aeruginosa; assay: Antibacterial activity against Pseudomonas aeruginosa at 20 ug after 24 hrs by disc diffusion assay; format: functional; settings: read-out: IZ
[13] = test system: Staphylococcus aureus; assay: Antibacterial activity against Staphylococcus aureus at 5 ug after 24 hrs by disc diffusion assay; format: functional; settings: read-out: IZ
[14] = test system: Klebsiella pneumoniae; assay: Antibacterial activity against Klebsiella pneumoniae at 25 ug after 24 hrs by disc diffusion assay; format: functional; settings: read-out: IZ
[15] = test system: Escherichia coli; assay: Antibacterial activity against Escherichia coli after 18 to 20 hrs by broth micro dilution assay; format: functional
[16] = test system: Salmonella typhi; assay: Antibacterial activity against Salmonella typhi at 10 ug after 24 hrs by disc diffusion assay; format: functional, Salmonella enterica subsp. enterica serovar Typhi; settings: Salmonella enterica, read-out: IZ
[17] = test system: Escherichia coli; assay: Inhibition of Escherichia coli DNA gyrase -mediated DNA relaxation using pBR322 DNA as substrate at […] after 1 hrs by agarose gel electrophoresis
[18] = test system: Escherichia coli; assay: Antibacterial activity against Escherichia coli at 10 ug after 24 hrs by disc diffusion assay; format: functional; settings: read-out: IZ
[19] = test system: Pseudomonas aeruginosa; assay: Antibacterial activity against Pseudomonas aeruginosa at 25 ug after 24 hrs by disc diffusion assay; format: functional; settings: read-out: IZ
[20] = test system: Pseudomonas aeruginosa; assay: Antibacterial activity against Pseudomonas aeruginosa at 5 ug after 24 hrs by disc diffusion assay; format: functional; settings: read-out: IZ
[21] = test system: Bacillus subtilis; assay: Antibacterial activity against Bacillus subtilis at 10 ug after 24 hrs by disc diffusion assay; format: functional; settings: read-out: IZ
[22] = test system: Escherichia coli; assay: Antibacterial activity against Escherichia coli at 5 ug after 24 hrs by disc diffusion assay; format: functional; settings: read-out: IZ
[23] = test system: Escherichia coli; assay: Antibacterial activity against Escherichia coli at 20 ug after 24 hrs by disc diffusion assay; format: functional; settings: read-out: IZ
[24] = test system: Bacillus subtilis; assay: Antibacterial activity against Bacillus subtilis at 15 ug after 24 hrs by disc diffusion assay; format: functional; settings: read-out: IZ
[25] = test system: Staphylococcus aureus; assay: Antibacterial activity against Staphylococcus aureus at 25 ug after 24 hrs by disc diffusion assay; format: functional; settings: read-out: IZ
[26] = test system: Salmonella typhi; assay: Antibacterial activity against Salmonella typhi at 25 ug after 24 hrs by disc diffusion assay; format: functional, Salmonella enterica subsp. enterica serovar Typhi; settings: Salmonella enterica, read-out: IZ
[27] = test system: Klebsiella pneumoniae; assay: Antibacterial activity against Klebsiella pneumoniae at 15 ug after 24 hrs by disc diffusion assay; format: functional; settings: read-out: IZ
[28] = test system: Escherichia coli; assay: Antibacterial activity against Escherichia coli at 15 ug after 24 hrs by disc diffusion assay; format: functional; settings: read-out: IZ
[29] = test system: Bacillus subtilis; assay: Antibacterial activity against Bacillus subtilis at 25 ug after 24 hrs by disc diffusion assay; format: functional; settings: read-out: IZ
[30] = test system: Escherichia coli; assay: Inhibition of DNA gyrase mRNA expression in Escherichia coli measured up to 24 hrs by RT-PCR; format: functional, organism-based
[31] = test system: Salmonella typhi; assay: Antibacterial activity against Salmonella typhi at 15 ug after 24 hrs by disc diffusion assay; format: functional, Salmonella enterica subsp. enterica serovar Typhi; settings: Salmonella enterica, read-out: IZ
[32] = test system: Salmonella typhi; assay: Antibacterial activity against Salmonella typhi at 20 ug after 24 hrs by disc diffusion assay; format: functional, Salmonella enterica subsp. enterica serovar Typhi; settings: Salmonella enterica, read-out: IZ
[33] = test system: Salmonella typhi; assay: Antibacterial activity against Salmonella typhi at 5 ug after 24 hrs by disc diffusion assay; format: functional, Salmonella enterica subsp. enterica serovar Typhi; settings: Salmonella enterica, read-out: IZ
[34] = test system: Escherichia coli; assay: Inhibition of Escherichia coli DNA gyrase assessed as inhibition of DNA supercoiling activity using pBR322 DNA as substrate at […] after 3 hrs by agarose gel electrophoresis
[35] = test system: Klebsiella pneumoniae; assay: Antibacterial activity against Klebsiella pneumoniae after 18 to 20 hrs by broth micro dilution assay; format: functional
[36] = test system: Klebsiella pneumoniae; assay: Antibacterial activity against Klebsiella pneumoniae at 20 ug after 24 hrs by disc diffusion assay; format: functional; settings: read-out: IZ
[37] = test system: Bacillus subtilis; assay: Antibacterial activity against Bacillus subtilis after 18 to 20 hrs by broth micro dilution assay; format: functional
[38] = test system: Staphylococcus aureus; assay: Antibacterial activity against Staphylococcus aureus after 18 to 20 hrs by broth micro dilution assay; format: functional

CCC1[C@H]2c3c(n(C)c4ccccc4c3=O)OC(C)(C)[C@@H]2CN1OS(=O)(=O)c1ccc(C)cc1 (mixture of isomers)
zone of inhibition at 25 µg/disc [1]: 23 mm | MIC50 [2]: 0.5 µg/mL | MIC90 [2]: 0.5 µg/mL | zone of inhibition at 10 µg/disc [3]: 26 mm | zone of inhibition at 20 µg/disc [4]: 30 mm | zone of inhibition at 5 µg/disc [5]: 10 mm | zone of inhibition at 20 µg/disc [6]: 10 mm | zone of inhibition at 15 µg/disc [7]: 26 mm | zone of inhibition at 10 µg/disc [8]: 14 mm | MIC50 [9]: 0.5 µg/mL | MIC90 [9]: 0.5 µg/mL | zone of inhibition at 10 µg/disc [10]: 24 mm | zone of inhibition at 15 µg/disc [11]: 28 mm | zone of inhibition at 20 µg/disc [12]: 34 mm | zone of inhibition at 5 µg/disc [13]: 20 mm | zone of inhibition at 25 µg/disc [14]: 26 mm | MIC50 [15]: 0.5 µg/mL | MIC90 [15]: 0.5 µg/mL | zone of inhibition at 10 µg/disc [16]: 16 mm | inhibition [17]: Active | zone of inhibition at 10 µg/disc [18]: 14 mm | zone of inhibition at 25 µg/disc [19]: 36 mm | zone of inhibition at 5 µg/disc [20]: 24 mm | zone of inhibition at 10 µg/disc [21]: 8 mm | zone of inhibition at 5 µg/disc [22]: 12 mm | zone of inhibition at 20 µg/disc [23]: 22 mm | zone of inhibition at 15 µg/disc [24]: 9 mm | zone of inhibition at 25 µg/disc [25]: 36 mm | zone of inhibition at 25 µg/disc [26]: 24 mm | zone of inhibition at 15 µg/disc [27]: 16 mm | zone of inhibition at 15 µg/disc [28]: 16 mm | zone of inhibition at 25 µg/disc [29]: 11 mm | inhibition of gyrase mRNA expression (active/not active) [30]: inactive | zone of inhibition at 15 µg/disc [31]: 18 mm | zone of inhibition at 20 µg/disc [32]: 22 mm | zone of inhibition at 5 µg/disc [33]: 10 mm | DNA gyrase inhibition (active/inactive) [34]: Active | MIC50 [35]: 0.5 µg/mL | MIC90 [35]: 0.5 µg/mL | zone of inhibition at 20 µg/disc [36]: 24 mm | MIC50 [37]: 0.5 µg/mL | MIC90 [37]: 0.5 µg/mL | MIC50 [38]: 0.5 µg/mL | MIC90 [38]: 0.5 µg/mL

CCC1[C@@H]2Nc3ccc(Br)cc3C(c3ccccc3)[C@H]2CN1OS(=O)(=O)c1ccc(C)cc1 (stereo partly drawn)
zone of inhibition at 25 µg/disc [1]: 23 mm | MIC50 [2]: 0.25 µg/mL (≈ 0.474 µM) | MIC90 [2]: 0.5 µg/mL (≈ 0.948 µM) | zone of inhibition at 10 µg/disc [3]: 26 mm | zone of inhibition at 20 µg/disc [4]: 30 mm | zone of inhibition at 5 µg/disc [5]: 10 mm | zone of inhibition at 20 µg/disc [6]: 10 mm | zone of inhibition at 15 µg/disc [7]: 26 mm | zone of inhibition at 10 µg/disc [8]: 14 mm | MIC50 [9]: 0.25 µg/mL (≈ 0.474 µM) | MIC90 [9]: 0.5 µg/mL (≈ 0.948 µM) | zone of inhibition at 10 µg/disc [10]: 24 mm | zone of inhibition at 15 µg/disc [11]: 28 mm | zone of inhibition at 20 µg/disc [12]: 34 mm | zone of inhibition at 5 µg/disc [13]: 20 mm | zone of inhibition at 25 µg/disc [14]: 26 mm | MIC50 [15]: 0.25 µg/mL (≈ 0.474 µM) | MIC90 [15]: 0.5 µg/mL (≈ 0.948 µM) | zone of inhibition at 10 µg/disc [16]: 16 mm | inhibition [17]: Active | zone of inhibition at 10 µg/disc [18]: 14 mm | zone of inhibition at 25 µg/disc [19]: 36 mm | zone of inhibition at 5 µg/disc [20]: 24 mm | zone of inhibition at 10 µg/disc [21]: 8 mm | zone of inhibition at 5 µg/disc [22]: 12 mm | zone of inhibition at 20 µg/disc [23]: 22 mm | zone of inhibition at 15 µg/disc [24]: 9 mm | zone of inhibition at 25 µg/disc [25]: 36 mm | zone of inhibition at 25 µg/disc [26]: 24 mm | zone of inhibition at 15 µg/disc [27]: 16 mm | zone of inhibition at 15 µg/disc [28]: 16 mm | zone of inhibition at 25 µg/disc [29]: 11 mm | inhibition of gyrase mRNA expression (active/not active) [30]: inactive | zone of inhibition at 15 µg/disc [31]: 18 mm | zone of inhibition at 20 µg/disc [32]: 22 mm | zone of inhibition at 5 µg/disc [33]: 10 mm | DNA gyrase inhibition (active/inactive) [34]: Active | MIC50 [35]: 0.25 µg/mL (≈ 0.474 µM) | MIC90 [35]: 0.5 µg/mL (≈ 0.948 µM) | zone of inhibition at 20 µg/disc [36]: 24 mm | MIC50 [37]: 0.25 µg/mL (≈ 0.474 µM) | MIC90 [37]: 0.5 µg/mL (≈ 0.948 µM) | MIC50 [38]: 0.25 µg/mL (≈ 0.474 µM) | MIC90 [38]: 0.5 µg/mL (≈ 0.948 µM)
